# Entries after “also recorded” stand apart in the source; their conditions may differ.
# Legend:
# [1] = Example 5: drug-drug interaction of zidovudine and Compound 1/r; conditions: human, in vivo
# Text: Zidovudine is a NRTI used in HIV patients.
# PK parameters were estimated using WinNonlin™ 5.0.1 (Pharsight Corporation, Mountain View, Calif., USA).
# HIV-1 integrase = HIV-1 integrase (Human immunodeficiency virus type 1 group M subtype B, UniProt P04585); conditions: after 10 days of monotherapy; through Day 21
# [2] = Example 1: multiple-dose safety of Compound 1 alone and with RTV; format: in vivo, human
# Procedure: The single-dose and multiple-dose pharmacokinetics of Compound 1 were also determined. The multiple-dose safety of Compound 1 administered alone and with RTV was also determined. Safety: Safety was evaluated by assessment of clinical laboratory tests at baseline and at various time points during the study; periodic physical examinations, including vital signs; and documentation of adverse events throughout the study. Safety: No statistical inference was performed for safety data in this pharmacokinetic study.
# [3] = Example 2: safety in subjects infected with HIV-1; format: in vivo, human
# Procedure: Safety: Adverse events, vital signs, electrocardiogram, ophthalmologic examination, and clinical laboratory tests were evaluated for safety. Safety: The proportion of subjects with adverse events was summarized by treatment, system organ class and preferred term for treatment-emergent adverse events, treatment-related adverse events, serious adverse events, and adverse events leading to study drug discontinuation. Adverse events were coded using the Medical Dictionary for Regulatory Activities (MedDRA®) version 8.1. […] Laboratory results were expressed on the original measurement scale and in terms of the toxicity grade. Changes from baseline in quantitative laboratory tests were summarized by visit.
# [4] = Example 1: pharmacokinetics of Compound 1 alone and with RTV in healthy subjects; format: in vivo, human; conditions: for Ctau / Cmax / half-life / AUC: Compound 1 in plasma; for AUC: N = 12, read-out: AUC (AUCtau)
# Text: The study was an open-label, fixed-sequence, crossover, pharmacokinetic study with 12 subjects. The subjects were healthy males and non-pregnant, nonlactating females between 18 and 45 years of age, inclusive. The duration of the study was 20 days, with Period 1 of Days 1 to 10 and Period 2 of days 11 to 20. Follow-up contact was on day 27.
# [5] = human, in vivo
# Procedure: Safety, tolerability, pharmacokinetics, and efficacy were monitored through Day 21 after dosing. The active treatments in the 5 cohorts were as follows: […] The duration of the study was 21 days, with 10 days of treatment and 11 days of follow-up. […] Matching placebo was administered orally under fed conditions. For Cohort 5 only, 100 mg RTV capsules were coadministered orally under fed conditions. […] Pharmacokinetics: The pharmacokinetic parameters of Compound 1 in plasma and peripheral blood mononuclear cells were summarized using descriptive statistics.
# [6] = Example 7: food effect on pharmacokinetics of Compound 1 in healthy Japanese males; format: in vivo; conditions: male, human, plasma, po, 400 mg, single oral dose 400 mg, Mean ± SD (n = 6); for half-life: read-out: t1/2 λz (converted)
# Procedure: Subjects in the 400 mg fasted cohort received an additional 400 mg dose with breakfast after a washout period (generally a minimum of ten days after the initial administration). The interval of ten days between the two doses was considered appropriate for eliminating any within-subject carryover effects. […] Doses were administered at similar times for each subject in each treatment period. […] Plasma samples were isolated from healthy subjects administered with Compound 1. The plasma samples were extracted by solid phase extraction using Empore™ Disk Plate (C8SD), and then measured by high-performance liquid chromatography/tandem mass spectrometry (LC/MS/MS) (HPLC model 2795 separations module from Waters; mass spectrometer model AP14000 from MDS SCIEX). Ionization and detection were performed with electrospray ionization and positive ion detection with multiple reaction monitoring, respectively. […] To 50 μL of plasma samples spiked with […] each of 90% acetonitrile and 20 mmol/L ammonium formate-formic acid buffer (pH 3.0)/acetonitrile (10:90, v/v), 10 μL each of internal standard solution was added. To these samples, 200 μL of 0.1% formic acid in 10% acetonitrile was added. These solutions were then mixed for 10 seconds and centrifuged at 10,000 rpm for 5 minutes at 4° C. A 250 μL aliquot of the supernatant was added to a Empore™ Disk Plate (C8SD) (conditioned with 150 μL of acetonitrile and 200 μL of 0.1% formic acid in this order). The plate was washed twice with 200 μL of 0.1% formic acid in 20% acetonitrile and eluted twice with 100 μL of 0.1% formic acid in 80% acetonitrile (200 μL in total). To the eluates, 200 μL of 0.1% formic acid was added and mixed. Then, 10 μL of each solution was injected into the LC/MS/MS system and analyzed.
# [7] = Example 3: pharmacokinetics of Compound 1 and RTV at a range of RTV doses; conditions: for Ctau / AUC / Cmax / half-life: Compound 1 in plasma, mean (CV %); for IQ: based on protein binding-adjusted IC50 in PBMCs; for AUC / Cmax / half-life: both, human, plasma, oral; for AUC: AUCtau
# HIV-1 = test: Example 2: exposure-response (Emax model) and inhibitory quotient; format: in vivo; conditions: simple Emax model on Ctau
# [8] = healthy subjects, Compound 1 100 mg twice daily alone, or with RTV 100 mg twice daily
# [9] = 200 mg of Compound 1 twice-daily, 6 subjects
# [10] = both sexes, human, plasma, oral, 100 mg, Day 10, Compound 1 100 mg twice daily alone, mean (% CV)
# [11] = both sexes, human, plasma, oral, Day 11, Compound 1 100 mg twice daily + single dose RTV 100 mg, mean
# [12] = both sexes, human, plasma, oral, Day 20, Compound 1 100 mg + RTV 100 mg twice daily, mean
# [13] = Compound 1 125 mg + 20 mg RTV QD
# [14] = Compound 1 125 mg + 50 mg RTV QD
# [15] = Compound 1 125 mg + 100 mg RTV QD
# [16] = Compound 1 125 mg + 200 mg RTV QD
smiles,measurement,setting,value
"COc1cc2c(cc1Cc1cccc(Cl)c1F)c(=O)c(C(=O)O)cn2[C@H](CO)C(C)C [Compound 1, 6-(3-chloro-2-fluorobenzyl)-1-[(2S)-1-hydroxy-3-methylbutan-2-yl]-7-methoxy-4-oxo-1,4-dihydroquinoline-3-carboxylic acid]",Half-life (48 hour PK profile),[1],supporting once daily dosing
same,HIV-1 integrase mutations corresponding to Compound 1 resistance,HIV-1 integrase,no subject developed HIV-1 integrase mutations; also recorded: No Compound 1 resistance mutations were detected
same,Subjects with treatment-emergent AEs considered related to study drugs,[2]; [8],2 of 12
same,Subjects with treatment-emergent adverse events,[2]; [8],4 of 12
same,Tolerability,"[2]; oral, 100 mg twice daily, Compound 1 up to 20 days, with RTV 100 mg twice daily up to 10 days",well tolerated
same,Subjects with treatment-emergent Grade 3 or 4 laboratory abnormalities,"[3]; 50 mg of Compound 1+RTV once-daily, 6 subjects",1 subject
same,Subjects with treatment-related fatigue,[3]; [9],2 subjects
same,Subjects with treatment-related nausea,[3]; [9],2 subjects
same,Subjects with treatment-emergent Grade 3 or 4 laboratory abnormalities,"[3]; 400 mg of Compound 1 twice-daily, 6 subjects",1 subject
same,Tolerability,"[3]; all dose levels, 10 days, HIV-1 infected subjects",generally well tolerated
same,"mean steady-state exposure (AUCtau, Day 10) lower compared with mean exposure (AUCinf) after a single dose (Day 1)","[4]; Compound 1 100 mg alone, indicating autoinduction of metabolism",approximately 20%
same,Ctau,"[4]; end of dosing interval, Day 1, Compound 1 100 mg alone, mean (% CV)",19.2 (52.5) ng/mL
same,Ctau,"[4]; Day 10, Compound 1 100 mg twice daily alone, mean (% CV)",12.4 (63.7) ng/mL
same,Ctau,"[4]; Day 11, Compound 1 100 mg twice daily + single dose RTV 100 mg, mean",543.3 ng/mL
same,Ctau,"[4]; Day 20, Compound 1 100 mg + RTV 100 mg twice daily, mean",1035.6 ng/mL
same,Cmax,"[4]; both sexes, human, plasma, oral, 100 mg, Day 1, single dose Compound 1 100 mg alone, mean (% CV)",200 ng/mL
same,half-life,"[4]; both sexes, human, plasma, oral, 100 mg, Day 1, single dose Compound 1 100 mg alone, median (min, max)",3.1 h
same,half-life,"[4]; both sexes, human, plasma, oral, 100 mg, Day 10, Compound 1 100 mg twice daily alone, steady state, median (min, max)",3.5 h
same,Cmax,[4]; [10],164 ng/mL
same,AUC,[4]; [10],719 ng·h/mL
same,AUC(0-inf),"[4]; both sexes, human, plasma, oral, 100 mg, read-out: AUC (AUCinf)",908 ng·h/mL
same,Cmax,[4]; [11],795 ng/mL
same,AUC,[4]; [11],6170 ng·h/mL
same,half-life,"[4]; both sexes, human, plasma, oral, Day 11, Compound 1 100 mg twice daily + single dose RTV 100 mg, median",18.2 h
same,half-life,"[4]; both sexes, human, plasma, oral, Day 20, Compound 1 100 mg + RTV 100 mg twice daily, steady state, median",9.5 h
same,Cmax,[4]; [12],1830 ng/mL
same,AUC,[4]; [12],14300 ng·h/mL
same,Dose proportionality of pharmacokinetics,[5],did not exhibit dose-proportional increases
same,AUC(0-inf),[6]; Fasted,1450 ± 308 ng·h/mL
same,Cmax,[6]; Fasted,264 ± 78 ng/mL
same,Tmax,[6]; Fasted,2.5 ± 1.2 h
same,half-life,[6]; Fasted,5.4 ± 1 h
same,AUC(0-inf),[6]; Fed,3940 ± 1070 ng·h/mL
same,Cmax,[6]; Fed,903 ± 391 ng/mL
same,Tmax,[6]; Fed,2.3 ± 1 h
same,half-life,[6]; Fed,3.2 ± 0.3 h
same,Ctau,[7]; [13],73.8 (60.2) ng/ml
same,Ctau,[7]; [14],251 (27.7) ng/ml
same,Ctau,[7]; [15],380 (39.9) ng/ml
same,Ctau,[7]; [16],410 (26.0) ng/ml
same,IQ,[7]; [13],10.3
same,IQ,[7]; [14],35.0
same,IQ,[7]; [15],53.0
same,IQ,[7]; [16],57.2
same,AUC,"[7]; Compound 1 125 mg + 20 mg RTV QD, after a meal",10200 ng·h/mL
same,AUC,[7]; [14],15800 ng·h/mL
same,AUC,[7]; [15],20300 ng·h/mL
same,AUC,[7]; [16],20600 ng·h/mL
same,Cmax,[7]; [13],1370 ng/mL
same,Cmax,[7]; [14],1560 ng/mL
same,Cmax,[7]; [15],1830 ng/mL
same,Cmax,[7]; [16],2030 ng/mL
same,half-life,[7]; [13],4.34 h
same,half-life,[7]; [14],9.52 h
same,half-life,[7]; [15],11.5 h
same,half-life,[7]; [16],14.3 h
same,Emax,HIV-1,2.32 log10 copies/mL reduction from baseline

# Source: patent publication US20070219243A1, “Method for improving the pharmacokinetics of HIV integrase inhibitors” (priority 2005, published 2007)
